A short description of this data set: Human HepG2 cell viability assay in 384 well format. The note with it: HepG2 cells, read-out: Inhibition. More on the design: dose 125 nL, time 70.5 hour; cytotoxicity at 70.5 h: concentration not given beside the values. In kind it is toxicity, cell-based.
Regarding `O=C(NCCOc1ccc(Cl)cn1)Nc1nccs1`, the cytotoxicity at 70.5 h turned out to be 11%.

In the case of `c1nc(-c2nc(C3CCOC3)no2)cs1` (stereo not drawn), the cytotoxicity at 70.5 h is -1.71%.

Regarding `N#Cc1csc(CNCCOc2ccccc2)c1`, the cytotoxicity at 70.5 h is 0.519%.

As for `CN1CCN(C(=O)c2cc(C#N)cs2)c2ccccc2C1`, the cytotoxicity at 70.5 h is -0.662%.

With `CC1CN(C)c2ccccc2CN1C(=O)c1cc(C#N)cn1C` (stereo not drawn), the cytotoxicity at 70.5 h turned out to be 14.8%.

Turning to `CN1CCN(C(=O)c2cc(C#N)cn2C)c2ccccc2C1`, the cytotoxicity at 70.5 h was -2.54%.

`N#Cc1csc(CNCCOc2ncccc2Cl)c1`: the cytotoxicity at 70.5 h came out at 8.52%.

Regarding `CCC1CCC(CNC(=O)c2c[nH]c(=O)c(Cl)c2)CC1` (stereo not drawn), the cytotoxicity at 70.5 h was -9.94%.

For `Cc1nc(-c2nnc[nH]2)sc1C(=O)N1CCCC1CC(C)(C)C` (stereo not drawn), the cytotoxicity at 70.5 h is -5.06%.

In the case of `Cc1csc(C(C)(C)NCc2ncc(-c3ccccc3)o2)n1`, the cytotoxicity at 70.5 h is -7.99%.

Turning to `COCCOCC(=O)NCc1ccc(N(C)C)nc1`, the cytotoxicity at 70.5 h is -5.23%.

Take `COCCNC(=O)NC1CCN(c2cnn(C)c2)C1` (stereo not drawn): the cytotoxicity at 70.5 h is -4.09%.

Turning to `Cc1cc(C)cc(CNC(C)c2c(C)nn(C)c2C)c1` (stereo not drawn), the cytotoxicity at 70.5 h is -13.1%.

For `COCCSCC(=O)NCc1ccnc(N(C)C)c1`, the cytotoxicity at 70.5 h was -8.31%.

In the case of `Cc1nccn1-c1ccc(C(C)NCCc2ccccn2)cc1` (stereo not drawn), the cytotoxicity at 70.5 h amounted to 0.00833%.

Consider `COc1ccc(S(=O)(=O)C(F)(F)F)cc1NC(=O)CSC`, for which the cytotoxicity at 70.5 h is -1.98%.

With `COCC(=O)Nc1cc(S(=O)(=O)C(F)(F)F)ccc1OC`, the cytotoxicity at 70.5 h amounted to 2.14%.

`CN(Cc1c(F)cccc1Cl)C(=O)Nc1cnn(CC(N)=O)c1`: the cytotoxicity at 70.5 h was determined as 6.9%.

As to `O=C(Cc1ccc(F)cc1)NS(=O)(=O)c1ccc(F)c(F)c1`, the cytotoxicity at 70.5 h is -2.89%.

Turning to `COc1ccc(NCc2c[nH]nc2-c2cccnc2)cc1`, the cytotoxicity at 70.5 h stood at 8.67%.

Turning to `COc1ccsc1C(=O)NCCNc1ccccc1`, the cytotoxicity at 70.5 h was -2.66%.

With `COc1cc(C)sc1C(=O)NCCNc1ccccc1`, the cytotoxicity at 70.5 h was 11.2%.

`Cc1cccc(CC(=O)NS(=O)(=O)c2ccc(F)c(F)c2)c1`: the cytotoxicity at 70.5 h is 8.16%.

As to `Cc1nccn1-c1ccc(C(C)NCc2cccn2C)cc1` (stereo not drawn), the cytotoxicity at 70.5 h is -4.2%.

With `O=C1CCC(=O)N1CCN1CCN(c2cc(F)ccc2F)CC1`, the cytotoxicity at 70.5 h was -3.59%.

Regarding `CCCS(=O)(=O)CCN1CCN(c2cc(F)ccc2F)CC1`, the cytotoxicity at 70.5 h is 2.83%.

Regarding `Cn1cc(C#N)cc1C(=O)Nc1ccc(CN2CCOCC2)cn1`, the cytotoxicity at 70.5 h is -2.71%.

As to `Cn1cc(C(=O)Nc2ccc(CN3CCOCC3)cn2)cn1`, the cytotoxicity at 70.5 h was -4.82%.

As to `COc1cccc(CCCNC(=O)N2CCC(O)(C(F)(F)F)C2)c1` (stereo not drawn), the cytotoxicity at 70.5 h is -2.72%.

As for `c1csc(CCNC2CCc3ncnn3C2)c1` (stereo not drawn), the cytotoxicity at 70.5 h came to 0.839%.

Take `COc1cccc(CC(=O)N2CCC(O)(C(F)(F)F)C2)c1` (stereo not drawn): the cytotoxicity at 70.5 h was -4.06%.

On to `Cc1csc(CN(C)C(C)C(=O)N2CCc3ccccc3C2)n1` (stereo not drawn), for which the cytotoxicity at 70.5 h stood at 11.5%.

In the case of `O=C(CN1CCCC1c1nc(Cc2ccc(F)cc2)no1)NC1CC1` (stereo not drawn), the cytotoxicity at 70.5 h worked out at 0.125%.

Consider `O=C(CNC1CCc2ncnn2C1)N(Cc1cccs1)C1CC1` (stereo not drawn), for which the cytotoxicity at 70.5 h stood at 0.341%.

Take `c1ccc(-n2cncn2)c(CNCCn2cccn2)c1`: the cytotoxicity at 70.5 h stood at 10.2%.

Consider `COCCCSc1ccc(NCc2scnc2C)cc1`, for which the cytotoxicity at 70.5 h was -0.225%.

On to `CC(C)(CNC(=O)C1CCCCN1S(C)(=O)=O)N1CCOCC1` (stereo not drawn), for which the cytotoxicity at 70.5 h was 38%.

For `O=c1c2sccc2ncn1CC(O)CN1CCOCC1` (stereo not drawn), the cytotoxicity at 70.5 h was -10.3%.

`CC(C)c1ccc(OCCNC(=O)c2ccoc2)cc1`: the cytotoxicity at 70.5 h was found to be 23.9%.

Take `CC(C)c1noc(CNc2cccc(-c3nnnn3C)c2)n1`: the cytotoxicity at 70.5 h was -8.75%.

For the compound `CCC(=O)N1CCN(c2ccc(C(=O)OC)cc2)CC1C` (stereo not drawn), the cytotoxicity at 70.5 h was -0.474%.

For `COCCNC(=O)CCNC(=O)c1ccc(N2CCC(C)=N2)cc1`, the cytotoxicity at 70.5 h is -16%.

Turning to `Cc1cc(CN2CCN(C(=O)C3(C#N)CCCC3)CC2)on1`, the cytotoxicity at 70.5 h came to 21%.

In the case of `CC1=NN(c2ccc(C(=O)OCCNC(=O)c3ccncc3)cc2)CC1`, the cytotoxicity at 70.5 h was -2.48%.

As for `CC(NS(C)(=O)=O)c1nc(-c2ccc(Br)cc2)no1` (stereo not drawn), the cytotoxicity at 70.5 h was -5.32%.

For the compound `CCC(C)(CNC(=O)c1ccon1)NC(=O)c1ccon1` (stereo not drawn), the cytotoxicity at 70.5 h was -8.49%.

Consider `Cc1cc(NC(=O)N2CCCC2CN2CCOCC2)nn1C` (stereo not drawn), for which the cytotoxicity at 70.5 h is -10.1%.

For `N#Cc1ccc(C(=O)O)nc1/C=C/c1cccc(F)c1`, the cytotoxicity at 70.5 h is -7.55%.

With `N#Cc1ccc(C(=O)O)nc1/C=C/c1cccc(Br)c1`, the cytotoxicity at 70.5 h was -4.7%.

As to `CCN(CC)c1ncc(CNC2CCc3ncnn3C2)s1` (stereo not drawn), the cytotoxicity at 70.5 h is -5.42%.

On to `O=C(Nc1nnc(C(F)F)s1)NC(CCO)c1cccs1` (stereo not drawn), for which the cytotoxicity at 70.5 h worked out at 32.8%.

Consider `Cc1ccc(C(=O)Nc2ccc(N(C)C)nc2)n1C`, for which the cytotoxicity at 70.5 h came to 3.75%.

For `N#Cc1cccc(OCCN2CCCC2C(=O)NC2CC2)c1` (stereo not drawn), the cytotoxicity at 70.5 h was determined as 4.05%.

For `Cc1cc(C)n(-c2ccccc2NC(=O)NCCCN(C)S(C)(=O)=O)n1`, the cytotoxicity at 70.5 h came out at 5.58%.

Take `N#Cc1ccc(CN2C(=O)c3ccccc3CS2(=O)=O)cc1`: the cytotoxicity at 70.5 h is -1.6%.

`O=C(NCc1cc2ccccc2[nH]1)C1CCCN(C(=O)N2CCCC2)C1` (stereo not drawn): the cytotoxicity at 70.5 h was -3.92%.

`CCc1nc2n(n1)CC(Nc1ccnc(-c3ccccc3)n1)CC2` (stereo not drawn): the cytotoxicity at 70.5 h is -3.97%.

With `Cc1nc2n(n1)CC(Nc1nc(-c3ccccc3)no1)CC2` (stereo not drawn), the cytotoxicity at 70.5 h was -0.185%.

Regarding `CC(C(=O)Nc1nccs1)N1CCc2nn(C)c(=O)cc2C1` (stereo not drawn), the cytotoxicity at 70.5 h turned out to be 20.7%.

Regarding `CCn1ncc2c1CCCC2NCc1ccc2c(c1)OCCO2` (stereo not drawn), the cytotoxicity at 70.5 h was 4.09%.

With `CC(C)(C)n1ncc2c1CCCC2NCc1cccc(C(N)=O)c1` (stereo not drawn), the cytotoxicity at 70.5 h turned out to be 3.6%.

Consider `CC(C)(C)n1ncc2c1CCCC2NCc1ccc2c(c1)OCCO2` (stereo not drawn), for which the cytotoxicity at 70.5 h worked out at 29.2%.

For the compound `CC(C)(C)OC(=O)N1CCC(C(=O)NCc2cc3ccccc3[nH]2)C1` (stereo not drawn), the cytotoxicity at 70.5 h was -2.83%.

Regarding `Fc1ccc2c(C3=CCN(Cc4nnc(C5CCC5)o4)CC3)c[nH]c2c1`, the cytotoxicity at 70.5 h turned out to be 2.23%.

Turning to `COc1ccc(C)cc1C(=O)NC1(C#N)CCOCC1`, the cytotoxicity at 70.5 h was -2.79%.

For the compound `Cc1noc(CN(Cc2cccc(C#N)c2)Cc2ccco2)n1`, the cytotoxicity at 70.5 h worked out at 0.0593%.

Take `Cc1nc(C(=O)N(C)CC2CC2)nn1-c1ccccc1C(C)C`: the cytotoxicity at 70.5 h is 36%.

As to `CC(O)(CNS(=O)(=O)Cc1ccon1)c1ccsc1` (stereo not drawn), the cytotoxicity at 70.5 h stood at 0.988%.

With `CCN(C)S(=O)(=O)NCC(C)(O)c1ccsc1` (stereo not drawn), the cytotoxicity at 70.5 h was -0.398%.

Turning to `CC(C)(C)n1ncc2c1CCCC2NCc1ccc2ncccc2c1` (stereo not drawn), the cytotoxicity at 70.5 h was -4.24%.

On to `CC(C)(C)c1noc(CCC(=O)N2CCN(Cc3ccco3)CC2)n1`, for which the cytotoxicity at 70.5 h is -0.998%.

With `COC(=O)CCNC(=O)c1cccc(C(=O)N(C)c2ccccc2)c1`, the cytotoxicity at 70.5 h amounted to 31.4%.

`Cc1nc(CNC2CCCN(c3cccnn3)C2)no1` (stereo not drawn): the cytotoxicity at 70.5 h came out at 22%.

With `COC(=O)CNC(=O)c1cccc(C(=O)N(C)c2ccccc2)c1`, the cytotoxicity at 70.5 h turned out to be 30.5%.

Regarding `c1cncc(-c2noc(CNC3CCCN(c4cccnn4)C3)n2)c1` (stereo not drawn), the cytotoxicity at 70.5 h came to 24.9%.

On to `OC1CCCN(Cc2ccc(F)c3cccnc23)C1` (stereo not drawn), for which the cytotoxicity at 70.5 h is -0.871%.

For `CC(C)(C)c1ccc(C2(C(=O)NCCS(C)(=O)=O)CC2)cc1`, the cytotoxicity at 70.5 h was -6.58%.

For the compound `Cc1nc2c(c(C)c1CC(=O)NC(C)c1ccccc1)c(=O)[nH]n2C` (stereo not drawn), the cytotoxicity at 70.5 h was -2.23%.

Consider `Cc1cc(CNC(=O)Nc2cccc(COCCOC(C)C)c2)no1`, for which the cytotoxicity at 70.5 h was -0.772%.

`Cc1ccc(-c2ccc(C(=O)NCCS(N)(=O)=O)c(F)c2)cc1`: the cytotoxicity at 70.5 h was -3.69%.

With `Cc1ccc(CN(C)C(=O)CN2CCCCC2Cn2cncn2)cc1` (stereo not drawn), the cytotoxicity at 70.5 h stood at 22.7%.

In the case of `Cc1cc(CNC(=O)NC(C)c2ccccc2)no1` (stereo not drawn), the cytotoxicity at 70.5 h was determined as 0.144%.

With `Cc1ccc(-c2ccc(C(=O)NCCC(=O)N(C)C)c(F)c2)cc1`, the cytotoxicity at 70.5 h is -6.22%.

With `CCc1nc(CN2CCCN(c3ncnc4sccc34)CC2)no1`, the cytotoxicity at 70.5 h was found to be 16.3%.

For `CCCNC(=O)CNc1ccc2c(c1)N(C(=O)OC(C)(C)C)CCC2`, the cytotoxicity at 70.5 h worked out at 2.81%.

With `CN(Cc1cccs1)C(=O)CN1CCCCC1Cn1cncn1` (stereo not drawn), the cytotoxicity at 70.5 h amounted to 23.2%.

Take `CNc1nc(CNC(=O)Nc2cccc(COCCOC(C)C)c2)cs1`: the cytotoxicity at 70.5 h was 2.29%.

As for `Cc1ncccc1C(=O)NC1(c2cccc(F)c2)CCOCC1`, the cytotoxicity at 70.5 h was -3.77%.

With `CC(C)C1CN(C(=O)c2ccc3nccnc3c2)CCS1` (stereo not drawn), the cytotoxicity at 70.5 h is -7.38%.

In the case of `CC(C)OCCOCc1cccc(NC(=O)NCc2cnn(C)c2)c1`, the cytotoxicity at 70.5 h is -0.106%.

Consider `Cc1ccccc1CN(C)C(=O)CN1CCCCC1Cn1cncn1` (stereo not drawn), for which the cytotoxicity at 70.5 h is -7.31%.

With `COc1cc(NC(=O)c2ccc(F)cc2Cl)c(C(=O)N(C)C)cc1OC`, the cytotoxicity at 70.5 h was -8.85%.

For `COc1cc(NC(=O)c2cc(Cl)ccc2F)c(C(=O)N(C)C)cc1OC`, the cytotoxicity at 70.5 h is -15.4%.

Regarding `CC(CN1CCOCC1)NC(=O)NCc1ccoc1` (stereo not drawn), the cytotoxicity at 70.5 h amounted to 4.07%.

Take `COc1ccc(-c2nnc(SC(C)C(=O)NC3CCCC3)[nH]2)c(OC)c1` (stereo not drawn): the cytotoxicity at 70.5 h came to 42.2%.

Regarding `COc1ccc(-c2nnc(SC(C)C(N)=O)[nH]2)c(OC)c1` (stereo not drawn), the cytotoxicity at 70.5 h is -8.05%.

For the compound `CS(=O)(=O)N1CCN(Cc2csc(-c3ncccn3)n2)CC1`, the cytotoxicity at 70.5 h stood at 15.5%.

Turning to `Cc1nc(N2CCCC(N3CCCC3)C2)c2cnn(C)c2n1` (stereo not drawn), the cytotoxicity at 70.5 h is -5.42%.

As to `Cc1cccc(-c2c[nH]c(C3CCCN3C(=O)C3CCOCC3)n2)c1` (stereo not drawn), the cytotoxicity at 70.5 h was -10.3%.

`COc1c(Br)cccc1CCNC(=O)c1ccon1`: the cytotoxicity at 70.5 h was -10.8%.

Regarding `FC(F)(F)c1ccnc(N2CCCCCC2)c1`, the cytotoxicity at 70.5 h is -10.6%.

`CC1CN(C(=O)c2ccnc(OCCN(C)C)c2)c2ccccc21` (stereo not drawn): the cytotoxicity at 70.5 h was -14.8%.

For `CC1CCN(CCCNS(=O)(=O)c2cc(F)cc(F)c2)CC1`, the cytotoxicity at 70.5 h amounted to 48.4%.

These data come from ChEMBL document CHEMBL3507680, “University of Dundee, Gates Library screen for HepG2 cell viability”.
